Patent US20180369186A1, “METHOD FOR MODULATING AUTOPHAGY AND APPLICATIONS THEREOF” (JAWAHARLAL NEHRU CENTRE FOR ADVANCED SCIENTIFIC RESEARCH, priority 2015, published 2018)
Where “and” joins values, the source holds several entries; their conditions need not be identical. Equal entries are not always repeated.

Assays:
α-synuclein toxicity = experiment: S. cerevisiae α-synuclein toxicity model, growth assay; assay type: cell-based; conditions: WT α-synuclein-EGFP strain; 50 μM
Description: To screen small molecule library LOPAC1280 in S. cerevisiae SNCA toxicity model, working plates containing 50 μM drugs in 1.5% DMSO (190 compounds/plate) are prepared in a 384 well format. WT SNCA-GFP with or without small molecules and untreated WT GFP are grown under optimized conditions (80 μl, 30° C. and 420 rpm) for 36 h in a plate reader (Varioskan Flash, Thermo Scientific) in duplicates with automatic absorbance (A600) recording every 20 min. Growth curves of untreated WT GFP and WT SNCA-GFP strains are plotted and mid to late exponential phase time point of untreated WT GFP strain is chosen as reference for data analysis. Its corresponding time point of untreated and drug treated WT SNCA-GFP strains are plotted separately in a box plot. Small molecules that rescued the growth lag by ≥3 SD units of untreated WT SNCA-GFP strain are considered as ‘Hits’.
Growth assays: In a 384 well plate, appropriate yeast strains are seeded (A600˜0.07) with and without drugs and incubated (80 μl, 30° C. and 420 rpm) in a multiplate reader (Varioskan Flash, Thermo Scientific) for 48 h with automatic absorbance (A600) recording every 20 min. Growth curves are plotted and analyzed using GraphPad Prism.
Induction of α-synuclein-EGFP aggregates: To induce α-synuclein-EGFP aggregates, the corresponding strains are inoculated in SD-Ura medium, Secondary culture is inoculated from primary inoculum and incubated till A600 reaches 0.8/ml. Cells are washed twice with sterile water and aggregates are induced by adding SG-Ura for 12-16 h.
To screen small molecule library LOPAC^1280 in S. cerevisiae α-synuclein toxicity model, working plates containing 50 μM drugs (small molecule) in 1.5% DMSO (190 compounds/plate) are prepared in a 384 well format. WT α-synuclein-EGFP with and without small molecules and untreated WT EGFP are grown under optimized conditions (80 μl, 30° C. and 420 rpm) for 36 h in a plate reader (Varioskan Flash, Thermo Scientific) in duplicates with automatic absorbance (A600) recording every 20 min.
Growth curves of untreated WT EGFP and WI α-synuclein-EGFP strains are plotted and mid to late exponential phase time point of untreated WT EGFP strain is chosen as reference for data analysis. Its corresponding time point of untreated and drug treated WT α-synuclein-EGFP strains are plotted separately in a box plot.
Appropriate yeast strains are seeded (A600 ˜0.07) with or without drugs in a 384-well plate and incubated (420 rpm, 30° C. and 80 μl) in a multiplate reader (Varioskan Flash, Thermo Scientific) for 48 h that records absorbance (A600) automatically for every 20 min. Growth curves are plotted using GraphPad Prism.

[1] = tested on: TH+ dopaminergic neurons in SNpc; experiment: MPTP mouse model: TH+ dopaminergic neurons in SNpc (stereology, densitometry, volume); assay type: in vivo, mice
Description: As described by Vernice Jackson-Lewis & Serge Przedborski (2007), 23.4 mg/kg MPTP.HCl (equivalent to 20 mg/kg free base) in 10 ml/kg body wt. of saline is administered intraperitoneally (i.p.) for 4 times at 2 h intervals.
All mice are sacrificed 9 days post MPTP administration and brains are processed for immunohistochemistry.
Mice are anaesthetized using Halothane BP (Piramal Healthcare) inhalation and perfused intracardially with normal saline followed by 4% PFA in 0.1 M phosphate buffer, pH 7.4. Brains are removed quickly and post-fixed with 4% PFA for 24 h-48 h at 4° C. Following cryoprotection in 15% and 30% sucrose, 40 μm thick coronal cryosections of midbrain are collected serially on gelatinized slides. Immunoperoxidase labelling protocol as identical to that reported. Briefly, endogenous peroxidase is quenched using H2O2 (0.1%) in methanol (70%), followed by blocking of non-specific staining by buffered solution (3%) of bovine serum albumin for 4 h at room temperature. Sections are incubated with TH primary antibody (1:500) followed by biotin conjugated secondary antibody (1:200 dilution, Vector Laboratories). Tertiary labelling is performed with avidin-biotin complex solution (1:100, Vector Laboratories). Staining is visualized using 3′-3′-diaminobenzidine (0.05%) as a chromogen in a solution of 0.1M acetate imidazole buffer (pH 7.4) and H2O2 (0.1%). Negative controls are processed identically, except that primary antibody is replaced with dilution buffer.
As described by Y. Fu et al., SNpcis delineated using the 4× objective of Olympus BX61 Microscope (Olympus) equipped with Stereo Investigator Software Version 7.2 (MicroBrightField). Stereological quantification is performed using optical fractionator probe with slight modifications(P. A. Alladi et al.). Briefly, every sixth midbrain section containing SNpc is chosen and TH^+ cells are counted under 100× objective, with a regular grid interval of 22500 μm^2 (x=150 μm, y=150 μm) and counting frame with an area of 3600 μm^2 (x=60 μm, y=60 μm) (FIG. 10B). Mounted thickness is determined at every fifth site, averaging to 25 μm. Guard zone 4 μm is applied on either side, thus providing 17 μm of z-dimension within optical dissector. The quantification is performed starting with first anterior appearance of TH^+ neurons in SNpc to caudal most part. The SNpc volume is determined by planimetry (FIG. 10C) and total numbers of neurons according to mean measured thickness are noted.
High magnification images of TH stained nigral DAergic neurons, captured for offline assessment of Tyrosine Hydroxylase (TH) enzyme expression levels=used. Expression intensity is measured using a Windows based image analysis system (Q Win V3, Leica Systems). Cumulative mean is derived from the values obtained from sampling, approximately 200 DAergic neurons per animal. Intensity output is measured on a grey scale of 0-255, where 0 equals intense staining and 255 means absence of staining.
The mice are distributed into three groups' viz., vehicle, MPTP and MPTP+XCT 790 injected respectively. The vehicle group receives intraperitoneal injections of dimethyl sulfoxide (DMSO) injections i.e. the solvent. The MPTP group receives 23.4 mg/kg MPTP.HCl in 10 ml/kg body wt. of saline is administered intraperitoneally for 4 times at 2 h interval. The MPTP+XCT 790 group mice are injected with 5 mg/kg body wt, of XCT 790 dissolved in DMSO, alongside the first MPTP injection. […]

DAergic neurons in SNpc = experiment: MPTP mouse model: LC3 and A11 puncta in DAergic neurons of SNpc; assay type: in vivo; conditions: MPTP treated cohort
Description: The sequential immunolabeling procedure is used to co-label the TH and LC3 and/or A11. First, the midbrain sections are equilibrated with 0.1 M PBS (pH 7.4) for 10 min and then incubated with buffered bovine serum albumin (3%) for 4 h to block non-specific epitopes. Then, the sections are incubated in rabbit anti-LC3 antibody (1:1000) and/or anti-oligomer antibody (A11, 1:1000) for 72 h at 4° C. After subsequent washes, the sections are incubated in corresponding fluorescent secondary antibody (1:200) at 4° C., overnight.
Co-labeling with TH is performed on the same sections using rabbit anti-TH antibody (1:500), followed by secondary labeling. PBST (0.01 M, pH 7.4) is used as both working and washing buffer. Sections are then mounted using Vectashield hardset mounting medium.

Atg8 = Atg8 immunolocalization in lace plant; assay type: cell-based, Aponogeton madagascariensis; conditions: two hours; same modulator concentrations as MDC; control 0.90±0.08
Description: Whole leaves are treated for two hours prior to fixation in 100% Methanol at 37° C. and then hydrophilized to 20% methanol by adding distilled water at 60° C. every two minutes for 32 minutes. Samples are then sectioned and placed on a multiwall slide and allowed to air dry for 10 minutes to facilitate membrane permeabilization. Blocking is done for 30 minutes at 37° C. with 4% low fat milk powder in 1× microtubule stabilization buffer MTSB (Modified 2× MTSB stock solution: 15 g PIPES, 1.9 g EDTA, 1.22 g MgSO4*7H2O and 2.5 g KOH—pH 7.0). Primary antibody incubation for anti-rabbit ATG8 (Agrisera, AS14 2769) is done at a 1:1000 dilution in 1× MTSB for 30 minutes at 37° C. Samples are then washed for 5 minutes, 3 times with 1× MTSB. Secondary antibody incubation with Goat anti-rabbit Dylight 488 (Agrisera AS09 633) at a 1:2000 dilution in 1× MTSB is done for 30 minutes at 37° C. and then samples are rinsed as above. Tissues are mounted in Mowiol 4-88 solution (Sigma, 81381) and scanned via confocal microscopy as mentioned above. The mean number of puncta per cell is determined using maximum intensity projections (MIPs) for each replicate. The total number of cells within a field of view are counted manually and the number of puncta are counted automatically using ImageJ.

[2] = tested on: lace plant (Aponogeton madagascariensis) cells; experiment: Lace plant leaf MDC staining of punctate structures; assay type: cell-based; conditions: 2 hours; 5 μM wortmannin, 50 μM Bay11, 1 μM concanamycin A, rapamycin, 50 μM ZPCK; control 0.99±0.12
Description: Axenic lace plant cultures are grown in magenta boxes and prepared according to Gunawardena et al. Leaves in the window stage are removed from the corm and rinsed thoroughly with distilled water prior to being sectioned into 2 mm^2 pieces. For starvation treatments, window stage leaves are removed from the plant, placed in distilled water and kept in the dark overnight.
Leaf sections are stained with monodansylcadaverine (MDC; 300 μM) (Sigma, D4008) and simultaneously treated with autophagy modulators for 2 hours in the dark. (1 hour vacuum infiltration at 15 psi). Treatment times, along with stain and modulator applications are optimized using concentration gradients followed by microscopy. The optimized concentrations are 5 μM rapamycin (Enzo Life Sciences (BML A275-0005), 5 μM wortmannin (Santa Cruz Biotechnology, sc-3505), 1 μM concanamycin A (Santa Cruz Biotechnology, sc-202111), 50 μM Bay 11 (Sigma, B5556) and 50 μM ZPCK (Sigma, 860794).
Tissue sections are then rinsed and mounted in distilled water prior to being scanned using a Nikon Eclipse Ti confocal microscope (Nikon 40X/1.30, Plan Fluor, 405 nm excitation and 450/30 nm emission). Areoles in the early phases of PCD are scanned to avoid cellular debris. The mean number of puncta are quantified for each treatment group with a minimum of four independent experiments using NIS Elements Advanced Research software. Additionally, starvation treatment leaves are also exposed to 5 μM, wortmannin, 50 μM Bay11 and 50 μM ZPCK treatments and then qualitatively assessed via confocal microscopy.

| Compound | mean number of Atg8 puncta per cell (Atg8) | mean number of punctate structures per cell (MDC) [2] | other results |
| --- | --- | --- | --- |
| N#C/C(=C\c1ccc(-c2cc(Cl)ccc2Cl)o1)C(=O)Nc1cccc2ncccc12 [Agk2, reference compound] | – | – | rescue of growth lag due to α-synuclein toxicity (α-synuclein toxicity): rescue growth lag |
| CN1CC=C(c2ccccc2)CC1 [MPTP, methyl-4-phenyl-1,2,3,6-tetrahydropyridine, reference compound] | – | – | reduction in number and health of DA neurons, compared to control ([1]; MPTP 23 mg/kg): ~3 fold; dopaminergic neurons in SNpc lost, MPTP vs Vehicle ([1]; MPTP 23.4 mg/kg, 4 times): ~68%; increase of A11 puncta / aggregates, placebo/vehicle vs MPTP (DAergic neurons in SNpc): ~7 fold and ~6.5 fold |
| C/C=C/[C@H]1O[C@@](O)([C@@H](C)[C@H](O)[C@H](C)[C@H]2OC(=O)/C(OC)=C/C(C)=C/[C@@H](C)[C@@H](O)[C@@H](CC)[C@@H](O)[C@H](C)C/C(C)=C/C=C/[C@@H]2OC)C[C@@H](O[C@H]2C[C@@H](O)[C@H](OC(N)=O)[C@@H](C)O2)[C@@H]1C [concanamycin A] | 2.43±0.29 | 1.91±0.13 | – |
| CO[C@H]1C[C@@H]2CC[C@@H](C)[C@@](O)(O2)C(=O)C(=O)N2CCCC[C@H]2C(=O)O[C@H]([C@H](C)C[C@@H]2CC[C@@H](O)[C@H](OC)C2)CC(=O)[C@H](C)/C=C(\C)[C@@H](O)[C@@H](OC)C(=O)[C@H](C)C[C@H](C)/C=C/C=C/C=C/1C [rapamycin] | 3.52±0.09 | 2.31±0.25 | – |
| COC[C@H]1OC(=O)c2coc3c2[C@@]1(C)C1=C(C3=O)[C@@H]2CCC(=O)[C@@]2(C)C[C@H]1OC(C)=O [wortmannin] | 0.27±0.025 | 0.26±0.03 | – |
